Where “and” joins values, the source holds several entries; their conditions need not be identical. Equal values may be shown once. Read-outs that look alike come from different tables or passages of the source. Square brackets hold non-standard residues; d marks the D form. Ends that are not written are not given here. Peptide text beside a SMILES is read from it.

We go through 4 compounds from article PMC4269415, “Replication Attempt: “Effect of BMAP-28 Antimicrobial Peptides on Leishmania Major Promastigote and Amastigote Growth: Role of Leishmanolysin in Parasite Survival”” (PLoS ONE, 2014).

The subject of series [1] is Leishmania major promastigotes (strain MHOM/SN/74/SD). Format: cell-based. Particulars: for % Viability (mean), replication: % of untreated control, calculated from the dose response curve; for % Viability (mean), combined original and replication: meta-analysis combining original and replication studies; for d Effect Size (Cohen's d), combined: original and replication combined. The procedure:
The promastigote viability assays were conducted by the Anti-Infectives Screening Core Facility at New York University School of Medicine (https://www.scienceexchange.com/facilities/anti-infectives-screening-and-insectary-core-facilities-nyu). All assays were performed by investigators blinded to the reagents under study. 500 µM stocks of peptides were made by resuspending 4 mg of each peptide (M.W. 3131.92) in 2.554 mL of distilled sterile water. Each peptide was tested in triplicate three independent times at 50 µM, 25 µM, 12.5 µM, 6.25 µM, 3.125 µM, 1.5625 µM, 0.78125 µM, and 0.390625 µM. L. major strain MHOM/SN/74/SD (ATCC, PRA-384) was used in these studies. These cells were routinely cultured at 26°C in M-199 medium (Gibco, Grand Island, NY), supplemented with 10% heat inactivated fetal calf serum (Hyclone, Logan) and Pen/Strep (Gibco, Grand Island, NY). Mid-log phase promastigotes at concentrations of 5×10^6 per well were seeded in 96-well tissue culture plates. Heat-killed parasites, prepared by incubation at 99°C for 30 minutes, served as positive controls for the viability assays. Peptides were incubated with the cells for 4 hours at 26°C. A 20 µL volume of PrestoBlue (Life Technologies, Carlsbad, CA) was added to each well and incubated at 37°C for 3 hours. Fluorescence at excitation 530 nm and 590 nm emission wavelengths was measured using a plate reader (VICTOR, Perkin Elmer, US). Background fluorescence from media alone controls was subtracted from each reading and promastigote viability was expressed as a percentage of the untreated control.
An independent-samples t-test was conducted to compare promastigote viability in peptide treated and untreated conditions. A Fisher combined probability test was used to combine the original and replication studies values into a single combined study value for each peptide and peptide concentration. To provide a standardized measure of the effect we used cohen's d.

For series [2], the system named is Leishmania major promastigotes. The series is described as follows: Promastigote viability assay of the original study (Fig. 1A of Lynn et al.). Format: cell-based. Particulars: from data of ref Lynn et al. [5].
For series [3], the system named is Leishmania major promastigotes. To be noted: 4 h, % of untreated control, determined from bar graph Fig. 1A, ref Lynn et al. [5], cited from earlier work. Here is the method:
Table 1 Promastigote viability assay of Leishmania major when treated with 0.5 µM or 2 µM BMAP-28 variants. | column: % Viability (mean) || This study describes an attempt to replicate experiments from the paper “Effect of BMAP-28 Antimicrobial Peptides on Leishmania major Promastigote and Amastigote Growth: Role of Leishmanolysin in Parasite Survival,” which was submitted to the Reproducibility Initiative for independent validation. The cathelicidin bovine myeloid antimicrobial peptide 28 (BMAP-28) and its isomers were previously shown to have potent antiparasitic activity against Leishmania major.

For series [4], the system named is mammalian epithelial cells and monocytes. Particulars: cited from earlier work.
Setting [5] is: 0.5 µM peptide, 4 h, three biological replicates.
[6] abbreviates: 2 µM peptide, 4 h, three biological replicates.

What is called IC50 is the concentration at which inhibition is half-maximal. As a reminder, the IC90 is the concentration needed for an effect of 90%. In the case of `CC[C@@H](C)[C@@H](NC(=O)[C@H]1CCCN1C(=O)CNC(=O)[C@@H](Cc1ccc(O)cc1)NC(=O)[C@@H](CCCCN)NC(=O)[C@@H](CCCCN)NC(=O)[C@@H](Cc1c[nH]c2ccccc12)NC(=O)[C@@H](C)NC(=O)[C@@H](CCCNC(=N)N)NC(=O)[C@@H](CC(C)C)NC(=O)[C@H](NC(=O)[C@@H](CCCCN)NC(=O)[C@@H](CCCNC(=N)N)NC(=O)CNC(=O)[C@@H](CC(C)C)NC(=O)[C@@H](CO)NC(=O)[C@@H](CCCNC(=N)N)NC(=O)[C@@H](CC(C)C)NC(=O)CNC(=O)CN)[C@H](C)CC)C(=O)N[C@@H](C(=O)N[C@@H](C(=O)N1CCC[C@@H]1C(=O)N[C@@H](C(=O)N[C@@H](C(=O)N[C@H](CCCNC(=N)N)C(=O)N[C@@H](C(=O)NCC(=O)O)[C@H](C)CC)[C@H](C)CC)[C@H](C)CC)C(C)C)[C@H](C)CC` [D-BMAP-28] (H-GG[dL][dR][dS][dL]G[dR][dK][dI][dL][dR][dA][dW][dK][dK][dY]G[dP][dI][dI][dV][dP][dI][dI][dR][dI]G-OH; N-terminus assumed), the “% Viability (mean), replication” value in series [1] (setting [5]) is given as 92.40%; in series [1] (setting [6]), 73.26%. Also, in series [1] (0.5 µM peptide), the “% Viability (mean), combined original and replication” value is “not significantly modified”. In addition, the “d Effect Size (Cohen's d), combined” value in series [1] (2 µM peptide vs untreated) worked out at 16.67. In addition, half-maximal inhibition in series [1] (4 h) (IC50) required 3.55 µM. In series [1] (4 h), it took 9.85 µM to reach the 90% level (IC90). Further, the “d Effect Size (Cohen's d), original study” value in series [2] (0.5 µM peptide vs untreated) is 2.55; in series [2] (2 µM peptide vs untreated), 37.8. Further, the “% Viability (mean), original study” value is 68.75% in series [3] (0.5 µM peptide); 6% and 5.50% in series [3] (2 µM peptide).

In the case of `CC[C@@H](C)[C@@H](NC(=O)CN)C(=O)N[C@H](CCCNC(=N)N)C(=O)N[C@@H](C(=O)N[C@@H](C(=O)N1CCC[C@@H]1C(=O)N[C@@H](C(=O)N[C@@H](C(=O)N[C@@H](C(=O)N1CCC[C@@H]1C(=O)NCC(=O)N[C@H](Cc1ccc(O)cc1)C(=O)N[C@H](CCCCN)C(=O)N[C@H](CCCCN)C(=O)N[C@H](Cc1c[nH]c2ccccc12)C(=O)N[C@H](C)C(=O)N[C@H](CCCNC(=N)N)C(=O)N[C@H](CC(C)C)C(=O)N[C@@H](C(=O)N[C@H](CCCCN)C(=O)N[C@H](CCCNC(=N)N)C(=O)NCC(=O)N[C@H](CC(C)C)C(=O)N[C@H](CO)C(=O)N[C@H](CCCNC(=N)N)C(=O)N[C@H](CC(C)C)C(=O)NCC(=O)NCC(=O)O)[C@H](C)CC)[C@H](C)CC)[C@H](C)CC)C(C)C)[C@H](C)CC)[C@H](C)CC` [RI-BMAP-28] (H-G[dI][dR][dI][dI][dP][dV][dI][dI][dP]G[dY][dK][dK][dW][dA][dR][dL][dI][dK][dR]G[dL][dS][dR][dL]GG-OH; N-terminus assumed), the results for the “% Viability (mean), replication” value in series [1] (setting [5]) and in series [1] (setting [6]) were 94.64% and 76.64%, respectively. For the same compound, in series [1] (0.5 µM peptide), the “% Viability (mean), combined original and replication” value was “not significantly modified”. The “d Effect Size (Cohen's d), combined” value in series [1] (2 µM peptide vs untreated) is recorded as 6.31. This compound also gave an IC50 in series [1] (4 h) of 4.55 µM. For the same compound, in series [1] (4 h), the 90% effect level (IC90) was put at 20 µM. Further, the entries for the “d Effect Size (Cohen's d), original study” value in series [2] (0.5 µM peptide vs untreated) and in series [2] (2 µM peptide vs untreated) were −1.20 and 6.88, respectively. The “toxicity to mammalian epithelial cells and monocytes (in words)” value in series [4] was “limited toxicity”. For the same compound, the “% Viability (mean), original study” value was 103.00% in series [3] (0.5 µM peptide); 18% and 17.50% in series [3] (2 µM peptide).

As to “GGLRSLGRKILRAWKKYGPIIVPIIRI-NH2 [L-BMAP-28-NH2, amidated L-BMAP-28 peptide]”, the “d Effect Size (Cohen's d), replication” value in series [1] (0.5 µM peptide vs untreated) worked out at 0.62; in series [1] (2 µM peptide vs untreated), 0.81. Besides, the “d Effect Size (Cohen's d), combined” value was 0.11 in series [1] (0.5 µM peptide vs untreated) and 2.65 in series [1] (2 µM peptide vs untreated). Moreover, the “% Viability (mean), replication” value in series [1] (setting [5]) was 95.55%; in series [1] (setting [6]) it was 94.15%. Further, the “% Viability (mean), combined original and replication” value in series [1] (0.5 µM peptide) came to 99.40%; in series [1] (2 µM peptide), 75.45%. Besides, the half-maximal inhibitory concentration (IC50) in series [1] (4 h at 26°C, PrestoBlue fluorescence, dose-response 0.39-50 µM, three biological replicates in triplicate, read-out: IC50, promastigote viability) is 5.83 µM. Further, the IC90 in series [1] (4 h at 26°C, PrestoBlue fluorescence, dose-response 0.39-50 µM, three biological replicates, read-out: IC90, promastigote viability) stood at 10.2 µM.

For “GGLRSLGRKILRAWKKYGPIIVPIIRIG [L-BMAP-28]”, in series [1] (4 h), 17.1 µM corresponded to half-maximal inhibition (IC50) and the concentration for an effect of 90% (IC90) stood at 25.2 µM.
